According to patent publication US4201725A, “Secondary amines” (priority 1974, dated 1980):

How the values were obtained:
[1] = test system: neuroleptic-induced catatonia; experiment: Inhibition of neuroleptic (prochlorperazine)-induced catatonia (preventive); assay type: in vivo, rat (male, OFA strain); conditions: for activity relative to amantadine, neuroleptic-induced catatonia: times more active than amantadine
Procedure: The blocking of dopaminergic receptors by neuroleptics in the extra-pyramidal system induces catatonia in the rat. Catatonia is differentiated from sedative properties by means of the test used hereabove for reserpine-induced catatonia. The same system of scoring was also employed in the present case.
An oral dose of the compound to be studied in aqueous solution was administered to batches of 10 male rats of the OFA strain weighing about 150 to 200 g.
Three hours after the injection of this latter compound, catatonia was measured. An identical trial was also carried out with control animals which received prochlorperazine but none of the compounds under study.
The scoring system used was that given hereabove for Table I.

[2] = in vivo; conditions: mouse, po
[3] = test system: reserpine-induced catatonia; experiment: Inhibition of reserpine-induced catatonia (preventive, oral compound 30 min before reserpine); assay type: in vivo, rat (male, OFA strain)
Procedure: After sufficient doses of reserpine have been administered to the rat, a series of symptoms occur, more particularly ptosis, catatonia and a drop in central temperature. These symptoms are caused by the depletion of the intragranular reserve pool of biogenetic amines at the synaptic terminals.
An oral dose of the compound to be studied in aqueous solution was administered to batches of 10 male rats of the OFA strain weighing about 150 to 200 g. Thirty minutes later a dose of 5 mg/kg of reserpine was given by intraperitoneal route. Three hours after the injection of reserpine, the animals were suspended by the four paws to a horizontally stretched wire fixed at 15 cm from the ground. The catatonia animals were those which maintained the position so given for at least 30 seconds. […] The maximum score was therefore 10 per batch. An identical trial was undertaken with control animals which received reserpine but none of the compounds being studied.

[4] = Tremor-inducing action; conditions: 0.031 m mol/kg oral, 30 min, hydrochloride form

For CCCC(N)(CC)CCC [Compound 2, 1-Ethyl-1-n-propyl-n-butylamine], the “Inhibition of the neuroleptic-induced catatonia” value ([1]; 5 mg/kg oral) was 1 (represents 20 to 30% inhibition of catatonia in comparison with the controls) and the selectivity ratio [2] was 30.

With CCCC(N)(CC)CC(C)C (stereo not shown) [Compound 3, 1-Ethyl-1-isobutyl-n-butylamine] the “Inhibition of the neuroleptic-induced catatonia” value ([1]; 20 mg/kg oral) was 3 (represents 70 to 80% inhibition of catatonia in comparison with the controls).

In the case of CCCC(N)(CCC)CC(C)C [Compound 5, 1-n-Propyl-1-isobutyl-n-butylamine], the “Inhibition of reserpine-induced catatonia” value ([3]; 20 mg/kg oral) is reported as 2 (represents 50% inhibition of catatonia in comparison with the controls) and the “activity relative to amantadine, neuroleptic-induced catatonia” value [1] is reported as “five times more active”.

With CCCC(C)(N)CC(C)CC (stereo not shown) [Compound 6, 1,3-Dimethyl-1-n-propyl-n-pentylamine] the selectivity ratio [2] was > 25.

With CCCCC(C)(N)CC(C)C (stereo not shown) [Compound 8, 1-Methyl-1-isobutyl-n-pentylamine] the “activity relative to amantadine, neuroleptic-induced catatonia” value [1] was “twice as active”.

CCCCCC(C)(N)CCC (stereo not shown) [Compound 9, 1-Methyl-1-n-propyl-n-hexylamine] gave a selectivity ratio [2] of 87.

With CCCCC(C)CC(C)(C)N (stereo not shown) [Compound 13, 1,1,3-Trimethyl-n-heptylamine] the “Inhibition of reserpine-induced catatonia” value ([3]; 25 mg/kg oral) was 1 (represents 20 to 30% inhibition of catatonia in comparison with the controls) and the “Inhibition of the neuroleptic-induced catatonia” value ([1]; 50 mg/kg oral) was 1 (represents 20 to 30% inhibition of catatonia in comparison with the controls).

For CCCC(N)(CCC)CC(C)C [Compound 19, 1-n-Propyl-1-isobutyl-n-butylamine], the “Inhibition of reserpine-induced catatonia” value ([3]; 6 mg/kg oral) was 3 (represents 70 to 80% inhibition of catatonia in comparison with the controls) and the “Inhibition of the neuroleptic-induced catatonia” value ([1]; 6 mg/kg oral) was 3 (represents 70 to 80% inhibition of catatonia in comparison with the controls).

In the case of CCCC(CCC)(CCC)N(C)C [Compound 28, N,N-Dimethyl-1,1-di-n-propyl-n-butylamine], the “Inhibition of reserpine-induced catatonia” value ([3]; 6 mg/kg oral) is reported as 4 (represents 100% inhibition of catatonia in comparison with the controls), the “Inhibition of the neuroleptic-induced catatonia” value ([1]; 3 mg/kg oral) is reported as 2 (represents 50% inhibition of catatonia in comparison with the controls) and the “Inhibition of the neuroleptic-induced catatonia” value ([1]; 6 mg/kg oral) is reported as 4 (represents 100% inhibition of catatonia in comparison with the controls).

With CCCC(CCC)(CCC)N1CCC1 [Compound 29, N,N-Trimethylene-1,1-di-n-propyl-n-butylamine] the “Inhibition of reserpine-induced catatonia” value ([3]; 3 mg/kg oral) was 3 (represents 70 to 80% inhibition of catatonia in comparison with the controls), the “Inhibition of reserpine-induced catatonia” value ([3]; 6 mg/kg oral) was 4 (represents 100% inhibition of catatonia in comparison with the controls) and the “Inhibition of the neuroleptic-induced catatonia” value ([1]; 3 mg/kg oral) was 2 (represents 50% inhibition of catatonia in comparison with the controls). The “Inhibition of the neuroleptic-induced catatonia” value ([1]; 6 mg/kg oral) was 4 (represents 100% inhibition of catatonia in comparison with the controls) and the selectivity ratio [2] was 10.8.

In the case of CCCC(CCC)(CC(C)C)NC [Compound 31, N-Methyl-1-n-propyl-1-isobutyl-n-butylamine], the “Inhibition of reserpine-induced catatonia” value ([3]; 6.5 mg/kg oral) is reported as 3 (represents 70 to 80% inhibition of catatonia in comparison with the controls) and the “Inhibition of the neuroleptic-induced catatonia” value ([1]; 6.5 mg/kg oral) is reported as 4 (represents 100% inhibition of catatonia in comparison with the controls).

In the case of C=CCC(CCC)(CCC)NC [Compound 32, N-Methyl-1-n-propyl-1-allyl-n-butylamine], the “Inhibition of reserpine-induced catatonia” value ([3]; 5 mg/kg oral) is reported as 2 (represents 50% inhibition of catatonia in comparison with the controls), the “index of reserpine-induced catatonia (numerator of ratio)” value ([3]; 0.031 m mol/kg oral, hydrochloride form) is reported as 3 (represents 70 to 80% inhibition of catatonia in comparison with the controls) and the “Inhibition of the neuroleptic-induced catatonia” value ([1]; 5 mg/kg oral) is reported as 2 (represents 50% inhibition of catatonia in comparison with the controls). The “number of animals presenting tremors (denominator of ratio)” value ([4]; batches of 10 rats) was 0 and the “ratio of index of reserpine-induced catatonia inhibition to number of animals presenting tremors” value [4] was 3/0.

For CCCC(CCC)(CCC)NCC [Compound 33, N-Ethyl-1,1-di-n-propyl-n-butylamine], the “Inhibition of reserpine-induced catatonia” value ([3]; 6 mg/kg oral) was 2 (represents 50% inhibition of catatonia in comparison with the controls), the “Inhibition of the neuroleptic-induced catatonia” value ([1]; 6 mg/kg oral) was 4 (represents 100% inhibition of catatonia in comparison with the controls) and the selectivity ratio [2] was 16.5.

In the case of CCCC(CCC)(CCC)NC(C)C [Compound 34, N-Isopropyl-1,1-di-n-propyl-n-butylamine], the “Inhibition of reserpine-induced catatonia” value ([3]; 6.5 mg/kg oral) is reported as 2 (represents 50% inhibition of catatonia in comparison with the controls), the “Inhibition of reserpine-induced catatonia” value ([3]; 13 mg/kg oral) is reported as 4 (represents 100% inhibition of catatonia in comparison with the controls) and the “Inhibition of the neuroleptic-induced catatonia” value ([1]; 3 mg/kg oral) is reported as 2 (represents 50% inhibition of catatonia in comparison with the controls). The “Inhibition of the neuroleptic-induced catatonia” value ([1]; 6.5 mg/kg oral) was 4 (represents 100% inhibition of catatonia in comparison with the controls) and the selectivity ratio [2] was 21.6.

With C=CCNC(CCC)(CCC)CCC [Compound 35, N-Allyl-1,1-di-n-propyl-n-butylamine] the “Inhibition of reserpine-induced catatonia” value ([3]; 6 mg/kg oral) was 2 (represents 50% inhibition of catatonia in comparison with the controls), the “Inhibition of the neuroleptic-induced catatonia” value ([1]; 6 mg/kg oral) was 4 (represents 100% inhibition of catatonia in comparison with the controls) and the selectivity ratio [2] was 21.

For CCCC(CCC)(CC(C)C)N(C)C [Compound 37, N,N-Dimethyl-1-n-propyl-1-isobutyl-n-butylamine], the “Inhibition of reserpine-induced catatonia” value ([3]; 6.5 mg/kg oral) was 3 (represents 70 to 80% inhibition of catatonia in comparison with the controls) and the “Inhibition of the neuroleptic-induced catatonia” value ([1]; 6.5 mg/kg oral) was 2 (represents 50% inhibition of catatonia in comparison with the controls).

With CCCC(CCC)(CCC)N(C)CC [Compound 38, N-Methyl-N-ethyl-1,1-di-n-propyl-n-butylamine] the “Inhibition of reserpine-induced catatonia” value ([3]; 6.5 mg/kg oral) was 2 (represents 50% inhibition of catatonia in comparison with the controls) and the “Inhibition of the neuroleptic-induced catatonia” value ([1]; 6.5 mg/kg oral) was 2 (represents 50% inhibition of catatonia in comparison with the controls).

For C#CCN(CC#C)C(CCC)(CCC)CCC [Compound 39, N,N-Dipropargyl-1,1-di-n-propyl-n-butylamine], the “Inhibition of reserpine-induced catatonia” value ([3]; 15 mg/kg oral) was 2 (represents 50% inhibition of catatonia in comparison with the controls).

With CCCC(CCC)(CCC)N1CC1 [Compound 40, N,N-Ethylene-1,1-di-n-propyl-n-butylamine] the “Inhibition of reserpine-induced catatonia” value ([3]; 6 mg/kg oral) was 2 (represents 50% inhibition of catatonia in comparison with the controls), the “Inhibition of the neuroleptic-induced catatonia” value ([1]; 6 mg/kg oral) was 1 (represents 20 to 30% inhibition of catatonia in comparison with the controls) and the “Inhibition of the neuroleptic-induced catatonia” value ([1]; 12 mg/kg oral) was 3 (represents 70 to 80% inhibition of catatonia in comparison with the controls). For the same compound, the selectivity ratio [2] was > 25.

With C=NC(CCC)(CCC)CCC [Compound 41, N-Methylene-1,1-di-n-propyl-n-butylamine] the “Inhibition of reserpine-induced catatonia” value ([3]; 5.5 mg/kg oral) was 4 (represents 100% inhibition of catatonia in comparison with the controls), the “Inhibition of the neuroleptic-induced catatonia” value ([1]; 5.5 mg/kg oral) was 3 (represents 70 to 80% inhibition of catatonia in comparison with the controls) and the selectivity ratio [2] was 27.

For CC=NC(CCC)(CCC)CCC [Compound 42, N-Ethylidene-1,1-di-n-propyl-n-butylamine], the “Inhibition of reserpine-induced catatonia” value ([3]; 6 mg/kg oral) was 4 (represents 100% inhibition of catatonia in comparison with the controls), the “Inhibition of the neuroleptic-induced catatonia” value ([1]; 6 mg/kg oral) was 2 (represents 50% inhibition of catatonia in comparison with the controls) and the selectivity ratio [2] was 20.

In the case of CCCC(CCC)(CCC)NCCO [Compound 43, N-(2-Hydroxyethyl)-1,1-di-n-propyl-n-butylamine], the “Inhibition of reserpine-induced catatonia” value ([3]; 13 mg/kg oral) is reported as 3 (represents 70 to 80% inhibition of catatonia in comparison with the controls), the “Inhibition of the neuroleptic-induced catatonia” value ([1]; 6.5 mg/kg oral) is reported as 1 (represents 20 to 30% inhibition of catatonia in comparison with the controls) and the selectivity ratio [2] is reported as 23.

With CCCC(CCC)(CCC)N(CCO)CCO [Compound 44, N,N-bis-(2-Hydroxyethyl)-1,1-di-n-propyl-n-butylamine] the “Inhibition of reserpine-induced catatonia” value ([3]; 15 mg/kg oral) was 1 (represents 20 to 30% inhibition of catatonia in comparison with the controls) and the “Inhibition of the neuroleptic-induced catatonia” value ([1]; 15 mg/kg oral) was 1 (represents 20 to 30% inhibition of catatonia in comparison with the controls).

With CCCC(CCC)(CCC)NCCCO [Compound 45, N-(3-Hydroxy-n-propyl)-1,1-di-n-propyl-n-butylamine] the “Inhibition of reserpine-induced catatonia” value ([3]; 14 mg/kg oral) was 2 (represents 50% inhibition of catatonia in comparison with the controls) and the “Inhibition of the neuroleptic-induced catatonia” value ([1]; 7 mg/kg oral) was 2 (represents 50% inhibition of catatonia in comparison with the controls).

For CCCC(CCC)(CCC)N1CCOCC1 [Compound 46, N,N-(3-Oxapentamethylene)-1,1-di-n-propyl-n-butylamine], the “Inhibition of reserpine-induced catatonia” value ([3]; 8 mg/kg oral) was 1 (represents 20 to 30% inhibition of catatonia in comparison with the controls), the “Inhibition of the neuroleptic-induced catatonia” value ([1]; 8 mg/kg oral) was 2 (represents 50% inhibition of catatonia in comparison with the controls) and the selectivity ratio [2] was 31.

With CCCNC(CCC)(CCC)CCC [Compound 47, N-n-propyl-1,1-di-n-propyl-n-butylamine] the “Inhibition of the neuroleptic-induced catatonia” value ([1]; 6.5 mg/kg oral) was 2 (represents 50% inhibition of catatonia in comparison with the controls).
